Source: ChEMBL document CHEMBL1201862, “PubChem BioAssay data set” (2004)
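Where inhibition never reached the appropriate level, the endpoint shown equals the highest concentration tested. Otherwise, values were interpolated linearly from a five-concentration, 48-hour dose response in 96-well plates. Here, GI50 denotes the concentration required for 50% inhibition of growth.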 Activity calls are given as the source filed them. No stated cut-off is given here; in the data, active = GI50 up to about 1.1 µM and inactive = higher.

Experiments:
Experiment in all cases: NCI-60 cell line screen, 48 h
[1] = tested on: EKVX
[2] = tested on: NCI-H460
[3] = tested on: DU-145
[4] = tested on: KM12
[5] = tested on: OVCAR-4
[6] = tested on: COLO 205
[7] = tested on: SK-OV-3
[8] = tested on: M14
[9] = tested on: SF-268
[10] = tested on: A498
[11] = tested on: UACC-257
[12] = tested on: SK-MEL-5
[13] = tested on: CCRF-CEM
[14] = tested on: MDA-MB-231
[15] = tested on: SW-620
[16] = tested on: LOX IMVI
[17] = tested on: Malme-3M
[18] = tested on: SN12C
[19] = tested on: UO-31
[20] = tested on: NCI-H522

Measured: GI50

O=[N+]([O-])c1cccnc1-n1cnc2ccccc21
inactive: [1] > 100 µM | [2] > 100 µM | [3] > 100 µM | [4] > 100 µM | [5] > 100 µM | [6] > 100 µM | [7] > 100 µM | [8] > 100 µM | [9] > 100 µM | [10] > 100 µM | [11] > 100 µM | [12] > 100 µM | [13] > 100 µM | [14] > 100 µM | [15] > 100 µM | [16] > 100 µM | [17] > 100 µM

C(#C[C@@]12CCC[C@@H]1N(Cc1ccccc1)CO2)c1ccc2c(c1)OCO2
inactive: [1] > 100 µM | [2] > 100 µM | [3] > 100 µM | [18] > 100 µM | [4] > 100 µM | [5] > 100 µM | [6] > 100 µM | [7] > 100 µM | [8] > 100 µM | [9] > 100 µM | [10] > 100 µM | [11] > 100 µM | [19] > 100 µM | [13] > 100 µM | [14] > 100 µM | [15] > 100 µM | [17] > 100 µM

N#Cc1c(N2CCCC2)nsc1Nc1ccccc1
inactive: [1] > 100 µM | [2] > 100 µM | [3] > 100 µM | [18] > 100 µM | [4] > 100 µM | [5] > 100 µM | [6] > 100 µM | [8] > 100 µM | [9] > 100 µM | [10] > 100 µM | [11] > 100 µM | [19] > 100 µM | [12] > 100 µM | [13] > 100 µM | [14] > 100 µM | [15] > 100 µM | [16] > 100 µM | [17] > 100 µM

C=C(C)COC(=O)COCC(=O)OCC(=C)C
inactive: [1] > 100 µM | [2] > 100 µM | [3] > 100 µM | [18] > 100 µM | [4] > 100 µM | [5] > 100 µM | [6] > 100 µM | [7] > 100 µM | [8] > 100 µM | [9] > 100 µM | [10] > 100 µM | [11] > 100 µM | [19] > 100 µM | [12] > 100 µM | [13] > 100 µM | [14] > 100 µM | [15] > 100 µM | [17] > 100 µM

CCN(CC)c1ccc2cc(-c3csc(-c4ccc(N(C)C)cc4)n3)c(=O)oc2c1
inactive: [1] > 100 µM | [20] > 100 µM | [2] > 100 µM | [3] > 100 µM | [18] > 100 µM | [4] 67.9 µM | [5] > 100 µM | [6] > 100 µM | [7] > 100 µM | [8] > 100 µM | [9] > 100 µM | [11] > 100 µM | [19] > 100 µM | [12] > 100 µM | [13] > 100 µM | [14] > 100 µM | [15] > 100 µM | [16] > 100 µM | [17] > 100 µM

CN(Cc1c[n+]([O-])c2nc(N)nc(N)c2n1)c1ccc(C(=O)NC23CC4CC(CC(C4)C2)C3)cc1
inactive: [1] > 100 µM | [2] > 100 µM | [3] > 100 µM | [18] > 100 µM | [4] > 100 µM | [6] > 100 µM | [7] > 100 µM | [8] > 100 µM | [9] 26.3 µM | [10] 13.5 µM | [11] > 100 µM | [19] > 100 µM | [12] 34.7 µM | [13] 28.6 µM | [14] 98.9 µM | [15] > 100 µM | [16] > 100 µM | [17] 78.2 µM

COc1ccc2c3c([nH]c2c1)CCN(Cc1ccccc1)C3
inactive: [1] 42.8 µM | [2] 17 µM | [3] > 100 µM | [18] 34 µM | [4] 22 µM | [5] 62.8 µM | [6] 18.7 µM | [7] > 100 µM | [8] 16.2 µM | [9] > 100 µM | [10] 15.1 µM | [11] 19.6 µM | [19] 12.4 µM | [12] 17 µM | [13] 34.3 µM | [14] 28.9 µM | [15] 23.2 µM | [16] 15.8 µM | [17] 18.7 µM

C1CSC2=C(S1)SC1=C(S2)SC(=C2SC3=C(SC4=C(SCCS4)S3)S2)S1
inactive: [1] > 100 µM | [20] > 100 µM | [2] > 100 µM | [3] > 100 µM | [18] > 100 µM | [4] > 100 µM | [5] > 100 µM | [6] > 100 µM | [7] > 100 µM | [8] > 100 µM | [9] > 100 µM | [10] > 100 µM | [11] > 100 µM | [19] > 100 µM | [12] > 100 µM | [13] > 100 µM | [14] > 100 µM | [15] > 100 µM | [17] > 100 µM

N#CC1(C#N)C2CCCCC23OC(=N)C1(C#N)C(c1ccccc1)O3 (stereo not drawn)
inactive: [1] 23.5 µM | [2] 19 µM | [3] 20.5 µM | [18] 13.1 µM | [4] 8.49 µM | [6] 13.4 µM | [7] > 100 µM | [8] 12.7 µM | [9] 2.49 µM | [10] 17.8 µM | [11] 18 µM | [19] 34.8 µM | [12] 16.1 µM | [13] 5.24 µM | [14] 16.4 µM | [15] 14.8 µM | [16] 17.3 µM | [17] 17 µM

Clc1ccc(OCC2NC3C=CC32)cn1 (stereo not drawn)
inactive: [1] 24.9 µM | [20] > 100 µM | [2] > 100 µM | [3] > 100 µM | [18] > 100 µM | [4] > 100 µM | [5] > 100 µM | [6] > 100 µM | [7] > 100 µM | [8] > 100 µM | [9] > 100 µM | [11] > 100 µM | [19] 44.7 µM | [12] > 100 µM | [13] 56.9 µM | [14] > 100 µM | [15] > 100 µM | [16] > 100 µM | [17] > 100 µM

COC(=O)C1=C(O)C(C(=O)OC)[C@]2(O)[C@H](C(=O)OC)[C@H]1C[C@@H](c1cccc(OC)c1)[C@H]2C(=O)OC (stereo partly drawn)
inactive: [1] 29.5 µM | [20] 6.1 µM | [2] 22.2 µM | [18] 22.9 µM | [4] 27.7 µM | [5] 29 µM | [6] 46.1 µM | [7] 28.2 µM | [8] 29.7 µM | [9] 26.1 µM | [10] 21.4 µM | [11] 37.7 µM | [19] 13.9 µM | [12] 23.5 µM | [14] 27.2 µM | [15] 21.5 µM | [16] 36.5 µM | [17] 24.5 µM

O=[N+]([O-])c1ccc(O)c(/C=N/CC2CCCN3CCCCC23)c1 (stereo not drawn)
inactive: [1] 31.4 µM | [20] 26 µM | [2] 45.8 µM | [3] 42.2 µM | [4] 37.7 µM | [6] 24.2 µM | [7] 29.6 µM | [8] 19.6 µM | [9] 21.3 µM | [11] 32.5 µM | [19] 34.8 µM | [12] 19.3 µM | [14] 88.1 µM | [16] 38.8 µM | [17] 31 µM

CN1CCN(C(=S)N(C(=O)c2ccc(Cl)cc2)C2CCCCC2)CC1
inactive: [20] > 100 µM | [2] > 100 µM | [3] > 100 µM | [18] > 100 µM | [4] > 100 µM | [5] > 100 µM | [6] > 100 µM | [8] > 100 µM | [9] > 100 µM | [11] > 100 µM | [19] > 100 µM | [12] > 100 µM | [13] 72.4 µM | [14] > 100 µM | [15] > 100 µM | [16] > 100 µM | [17] > 100 µM

O=S(=O)(O)c1cc(S(=O)(=O)O)c2c(/N=N/c3ccc(S(=O)(=O)O)c4ccccc34)c(O)ccc2c1
inactive: [1] > 100 µM | [20] > 100 µM | [3] > 100 µM | [18] > 100 µM | [4] > 100 µM | [5] > 100 µM | [6] > 100 µM | [7] > 100 µM | [8] > 100 µM | [9] > 100 µM | [11] > 100 µM | [19] > 100 µM | [12] > 100 µM | [13] > 100 µM | [14] > 100 µM | [15] > 100 µM | [16] > 100 µM | [17] 21.9 µM

Cc1ccc(-n2nnc(C(N)=O)c2O)cc1
inactive: [1] > 100 µM | [20] > 100 µM | [2] > 100 µM | [3] > 100 µM | [18] > 100 µM | [4] > 100 µM | [5] > 100 µM | [6] > 100 µM | [7] > 100 µM | [8] > 100 µM | [9] > 100 µM | [11] > 100 µM | [19] > 100 µM | [12] > 100 µM | [13] > 100 µM | [14] > 100 µM | [15] > 100 µM | [17] > 100 µM
